Assay results published in article PMC2680961, “Homologous desensitization of signalling by the alpha (α) isoform of the human thromboxane A2 receptor: A specific role for nitric oxide signalling” (Biochimica et Biophysica Acta, 2007).
Positions count from the first letter of the chain named. Where a name gives a salt, the structure may show the parent alone. Each block holds one molecule with its values, some of them ahead of it.

What was measured:
Type in all cases: cell-based
TPα [1] = molecular target: T1, TPα (Homo sapiens, UniProt P21731); test: Intracellular calcium mobilization, HEK.TPα cells; details: for secondary U46619 [Ca2+]i response relative to primary response: TPα
T1 construct: expressed in transfected cells
T1 sequence (P21731 1-343): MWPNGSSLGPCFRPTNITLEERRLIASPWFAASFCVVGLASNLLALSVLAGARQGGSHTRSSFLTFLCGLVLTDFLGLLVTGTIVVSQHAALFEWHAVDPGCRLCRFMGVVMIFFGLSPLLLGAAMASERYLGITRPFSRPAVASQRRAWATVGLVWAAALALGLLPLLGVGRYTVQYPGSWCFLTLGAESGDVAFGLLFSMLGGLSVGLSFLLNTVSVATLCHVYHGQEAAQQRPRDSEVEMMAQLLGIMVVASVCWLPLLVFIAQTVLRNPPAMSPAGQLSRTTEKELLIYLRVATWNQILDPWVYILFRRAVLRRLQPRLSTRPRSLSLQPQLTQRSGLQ
Method: (§1) Measurement of intracellular calcium mobilization ([Ca^2+]i) in FURA2/AM preloaded HEK 293 cell lines (2 × 10^6 cells/dish), each transiently co-transfected with pADVA (10 μg), and pCMV:Gαq (25 μg), was carried out as previously described. To investigate the effect of GRK2/βARK1 on TP-mediated [Ca^2+]i mobilization, HEK.TPα or HEK.TPβ cells (2 × 10^6 cells/dish) were co-transfected with pADVA (10 μg), pCMV:Gαq (25 μg) along with pRK5:βARK1^495–689 (25 μg), encoding a dominant negative form of GRK2/βARK1[39]. Approximately 48 h post-transfection, cells were harvested by scraping, washed twice in ice-cold PBS and resuspended in HBSSHB (modified Ca^2+/Mg^2+-free Hank's buffered salt solution, containing […], pH 7.67, 0.1% bovine serum albumin (BSA)) buffer at 10^7 cells/ml and incubated in the dark with 5 μM FURA2/AM for 45 min at 37 °C. Cells were collected by centrifugation (900×g, 5 min), washed once in an equal volume of HBSSHB, and were finally resuspended in HBSSHB buffer at 10^7 cells/ml and kept at room temperature in the dark for 40 min. For each measurement of [Ca^2+]i mobilization, aliquots of cells were diluted to 0.825 × 10^6 cells/ml in HBSSHB, 1 mM CaCl2 and FURA2 fluorescence was recorded (2 ml aliquots of cells) at 37^ °C with gentle stirring with a Perkin Elmer-Cetus LS50-B spectrofluorometer at excitation wavelengths of 340 nm and 380 nm and emission wavelength of 510 nm, respectively.
[…] To assess agonist-mediated homologous desensitization, cells (0.825 × 10^6 cells/ml; 2 ml per assay) were stimulated with 1 μM U46619 (Primary stimulation) or, as a control, with the vehicle for 4 min; thereafter, cells were collected by centrifugation (900×g, 5 min); were washed twice in 2 ml HBSSHB, 1 mM CaCl2; and finally resuspended in 2 ml HBSSHB,1 mM CaCl2 and were left to recover over various time intervals (ranging from 0 to 60 min); thereafter, cells re-stimulated with 1 μM U46619 (Secondary stimulation) and changes in [Ca^2+]i mobilization were monitored as a function of time. To assess the role of protein kinase (PK) A, PKC or PKG on U46619-mediated desensitization of TPα signalling, cells were pre-incubated with the PKA inhibitor H-89 (10 μM), the PKC inhibitor GF 109203X (50 nM) or the PKG inhibitor KT 5823 (50 nM), for 15 min and respective kinase inhibitors were maintained throughout the primary/secondary U46619-stimulations and during the washes.
(§2) The vehicle had no effect on U46619-mediated [Ca^2+]i mobilization. Calibration of the signal was performed in each sample by adding 0.2% Triton X-100 to obtain the maximal fluorescence ratio (Rmax) and then 1 mM EGTA to obtain the minimal fluorescence ratio (Rmin). The ratio of the fluorescence at 340 nm to that at 380 nm is a measure of [Ca^2+]i, which assumes a Kd of 225 nM Ca^2+ for FURA2/AM. The results presented in the figures are representative data from at least three or four independent experiments and are plotted as changes in Ca^2+i mobilized (Δ[Ca^2+]i (nM)) as a function of time (s) upon ligand stimulation. Changes in [Ca^2+]i mobilization were determined by measuring peak rises in [Ca^2+]i mobilized (Δ[Ca^2+]i) and were calculated as mean changes in Δ[Ca^2+]i ± S.E.M. (nM).

TP^Δ328 = molecular target: T2, TP^Δ328 (Homo sapiens, UniProt P21731); test: Intracellular calcium mobilization, HEK.TP^Δ328 cells; details: HEK.TP^Δ328
T2 construct: expressed in transfected cells
T2 sequence (P21731 1-328): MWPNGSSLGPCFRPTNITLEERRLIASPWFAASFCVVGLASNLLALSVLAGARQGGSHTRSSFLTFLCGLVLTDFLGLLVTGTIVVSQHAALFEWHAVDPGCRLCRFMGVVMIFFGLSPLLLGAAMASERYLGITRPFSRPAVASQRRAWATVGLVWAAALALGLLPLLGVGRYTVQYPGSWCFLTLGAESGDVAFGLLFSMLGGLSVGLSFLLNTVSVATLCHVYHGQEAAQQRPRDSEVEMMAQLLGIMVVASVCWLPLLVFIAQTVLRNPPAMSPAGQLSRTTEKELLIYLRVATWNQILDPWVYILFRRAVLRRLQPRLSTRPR
Method: as §1
(§3) Cells were stimulated with the TP agonist U46619 (1 μM) and changes in [Ca^2+]i mobilization were monitored as a function of time. To assess agonist-mediated homologous desensitization, cells (0.825 × 10^6 cells/ml; 2 ml per assay) were stimulated with 1 μM U46619 (Primary stimulation) or, as a control, with the vehicle for 4 min; thereafter, cells were collected by centrifugation (900×g, 5 min); were washed twice in 2 ml HBSSHB, 1 mM CaCl2; and finally resuspended in 2 ml HBSSHB,1 mM CaCl2 and were left to recover over various time intervals (ranging from 0 to 60 min); thereafter, cells re-stimulated with 1 μM U46619 (Secondary stimulation) and changes in [Ca^2+]i mobilization were monitored as a function of time. To assess the role of protein kinase (PK) A, PKC or PKG on U46619-mediated desensitization of TPα signalling, cells were pre-incubated with the PKA inhibitor H-89 (10 μM), the PKC inhibitor GF 109203X (50 nM) or the PKG inhibitor KT 5823 (50 nM), for 15 min and respective kinase inhibitors were maintained throughout the primary/secondary U46619-stimulations and during the washes.
as §2

TPα [2] = molecular target: T1, TPα; test: Agonist-mediated TP phosphorylation in whole cells, HEK.TPα
Method: (§4) Agonist-mediated TP phosphorylation in whole cells (1.8–2 × 10^6 cells/10 cm dish) was performed essentially as previously described. Briefly, cells were transiently co-transfected with pADVA (10 μg), pCMV:Gαq (25 μg) plus pcDNA:βArrestin2 (25 μg) approximately 48 h prior to labelling. Thereafter, cells were washed once in phosphate-free DMEM, 10% dialysed FBS and were metabolically labelled for 60 min in the same medium (2 ml/10 cm dish) containing 100 μCi/ml [^32P] orthophosphate (8000–9000 Ci/mmol) at 37 °C, 5% CO2. Where appropriate, the PKG kinase inhibitor KT 5823 (50 nM) or its vehicle was added during the labelling period. Thereafter, U46619 (1 μM) or an equivalent volume of vehicle (0.01% ethanol in HBS; 20 μl) were added and cells were incubated for 10 min at 37 °C, 5% CO2. Reactions were terminated by transferring the dishes to ice and aspirating the labelled medium and HA-epitope tagged TP receptors were processed and immunoprecipitated using the anti-HA 101R antibody as previously described. Electroblots were then exposed to Xomat XAR (Kodak) film to detect ^32P-labelled proteins. Thereafter, blots were subject to phosphorimage analysis, and the intensities of agonist-induced phosphorylation were expressed in arbitrary units relative to basal (vehicle-stimulated) levels. In parallel experiments, cells were incubated under identical conditions in the absence of [^32P] orthophosphate; HA-tagged TP receptors were immunoprecipitated from the same cell lines using the anti-HA 101R antibody and immunoblots were screened using the anti-HA 3F10 horseradish peroxidase-conjugated antibody.

TPα^S331A = molecular target: T3, TPα^S331A (Homo sapiens, UniProt P21731, S331A); test: Agonist-mediated TP phosphorylation in whole cells, HEK.TPα^S331A
T3 construct: expressed in transfected cells
T3 sequence (P21731 1-343 S331A): T1 sequence (P21731 1-343) with S331A
Method: as §4

TPβ [3] = molecular target: T4, TPβ (Homo sapiens, UniProt P21731); test: Intracellular calcium mobilization, HEK.TPβ cells; details: for effect of inhibitor on U46619-induced [Ca2+]i mobilization by TPβ: inhibitor pre-incubated 15 min, primary/secondary U46619 stimulation
T4 construct: expressed in transfected cells
T4 sequence (P21731 1-407 isoform P21731-2): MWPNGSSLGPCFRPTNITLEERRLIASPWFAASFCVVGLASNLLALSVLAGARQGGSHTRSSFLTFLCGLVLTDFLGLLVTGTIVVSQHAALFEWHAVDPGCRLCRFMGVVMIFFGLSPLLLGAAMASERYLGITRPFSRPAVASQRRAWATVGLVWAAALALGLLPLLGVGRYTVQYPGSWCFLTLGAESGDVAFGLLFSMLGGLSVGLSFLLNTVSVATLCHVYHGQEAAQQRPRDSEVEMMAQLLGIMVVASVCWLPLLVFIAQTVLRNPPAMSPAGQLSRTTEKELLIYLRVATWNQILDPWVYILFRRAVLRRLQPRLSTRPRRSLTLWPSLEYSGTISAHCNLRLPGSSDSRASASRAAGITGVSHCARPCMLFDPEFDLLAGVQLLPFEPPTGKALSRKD

TPβ [4] = molecular target: T4, TPβ; test: Intracellular calcium mobilization, HEK.TPβ cells
Method: as §1, §3, §2

[5] = 1 μM U46619 plus 50 nM KT 5823 pre-incubation

SMILES: Cl.Cl.O=S(=O)(NCCNCC=Cc1ccc(Br)cc1)c1cccc2cnccc12 [H-89, N-[2-((p-bromocinnamyl)amino)ethyl]-5-isoquino-linesulfonamide, 2HCL]
effect of inhibitor on [Ca2+]i mobilization in response to primary or secondary U46619 (TPα [1]; HEK.TPα, H-89 10 μM pre-incubation): no significant effect | Δ[Ca2+]i, U46619-induced (TPα [1]; HEK.TPα, primary 1 μM U46619 in presence of 10 μM H-89): 220 ± 9.2 nM | Δ[Ca2+]i, U46619-induced (TPα [1]; HEK.TPα, secondary 1 μM U46619 at 15 min in presence of 10 μM H-89): 0 nM | effect of inhibitor on [Ca2+]i mobilization in response to primary or secondary U46619 (TP^Δ328; H-89 10 μM pre-incubation): no significant effect | Δ[Ca2+]i, U46619-induced (TP^Δ328; primary 1 μM U46619 in presence of 10 μM H-89): 180 ± 10 nM | Δ[Ca2+]i, U46619-induced (TP^Δ328; secondary 1 μM U46619 at 15 min in presence of 10 μM H-89): 165 ± 8 nM

SMILES: COC(=O)[C@@]1(OC)C[C@H]2O[C@]1(C)n1c3ccccc3c3c4c(c5c6ccccc6n2c5c31)C(=O)N(C)C4 [KT 5823]
Δ[Ca2+]i, U46619-induced (TPα [1]; HEK.TPα, primary 1 μM U46619 in presence of 50 nM KT 5823): 160 ± 7.9 nM | Δ[Ca2+]i, U46619-induced (TPα [1]; HEK.TPα, secondary 1 μM U46619 at 15 min in presence of 50 nM KT 5823): 60 ± 7 nM | secondary U46619 [Ca2+]i response relative to primary response (TPα [1]; in presence of KT 5823 (50 nM)): approximately 38% | U46619-mediated TPα phosphorylation relative to basal (vehicle) (TPα [2]; [5]): 2 fold | reduction of agonist-induced TPα phosphorylation (TPα [2]; pre-incubation with KT 5823, 1 μM U46619): 2.5 fold | U46619-mediated TPα^S331A phosphorylation relative to basal (vehicle) (TPα^S331A; [5]): 1.5 fold | effect on agonist-induced phosphorylation of TPα^S331A (TPα^S331A; preincubation with KT 5823): not significantly affected | effect of inhibitor on U46619-induced [Ca2+]i mobilization by TPβ (TPβ [3]): no significant effect | Δ[Ca2+]i, U46619-induced (TPβ [3]; primary 1 μM U46619 in presence of 50 nM KT 5823): 170 ± 25 nM | Δ[Ca2+]i, U46619-induced (TPβ [3]; secondary 1 μM U46619 at 15 min in presence of 50 nM KT 5823): 0 nM

SMILES: COC(=O)[C@@H](N)CCCNC(N)=N[N+](=O)[O-] [L-NAME, NG-Nitro-L-arginine Methyl Ester, Hydrochloride]
Δ[Ca2+]i, U46619-induced (TPα [1]; HEK.TPα, primary 1 μM U46619 in presence of 1 μM L-NAME): 200 ± 9 nM | Δ[Ca2+]i, U46619-induced (TPα [1]; HEK.TPα, secondary 1 μM U46619 at 15 min in presence of 1 μM L-NAME): 80 ± 5.9 nM | Δ[Ca2+]i, U46619-induced (TPβ [4]; primary 1 μM U46619 in presence of 1 μM L-NAME): 220 ± 40 nM | Δ[Ca2+]i, U46619-induced (TPβ [4]; secondary 1 μM U46619 at 15 min in presence of 1 μM L-NAME): 0 nM | effect of inhibitor on U46619-induced [Ca2+]i mobilization by TPβ (TPβ [3]): no significant effect

Continued, values first:

Δ[Ca2+]i, U46619-induced (TPα [1]; HEK.TPα, primary 1 μM U46619 in presence of 50 nM GF 109203X): 250 ± 12 nM | Δ[Ca2+]i, U46619-induced (TPα [1]; HEK.TPα, secondary 1 μM U46619 at 15 min in presence of 50 nM GF 109203X): 90 ± 8 nM | secondary U46619 [Ca2+]i response relative to primary response (TPα [1]; in presence of GF 109203X (50 nM)): 36% | Δ[Ca2+]i, U46619-induced (TP^Δ328; primary 1 μM U46619 in presence of 50 nM GF 109203X): 200 ± 9.8 nM | Δ[Ca2+]i, U46619-induced (TP^Δ328; secondary 1 μM U46619 at 15 min in presence of 50 nM GF 109203X): 200 ± 12 nM
SMILES: CN(C)CCCn1cc(C2=C(c3c[nH]c4ccccc34)C(=O)NC2=O)c2ccccc21 [GF 109203X, 2-[1-(3-dimethylaminopropyl)-1H-indol-3-yl]-3-(1H-indol-3-yl)-maleimide]

Δ[Ca2+]i, U46619-induced (TPα [1]; HEK.TPα, primary 1 μM U46619 in presence of 1 μM LY 83583): 210 ± 12 nM | Δ[Ca2+]i, U46619-induced (TPα [1]; HEK.TPα, secondary 1 μM U46619 at 15 min in presence of 1 μM LY 83583): 58 ± 6 nM | Δ[Ca2+]i, U46619-induced (TPβ [4]; primary 1 μM U46619 in presence of 1 μM LY 83583): 185 ± 26 nM | Δ[Ca2+]i, U46619-induced (TPβ [4]; secondary 1 μM U46619 at 15 min in presence of 1 μM LY 83583): 0 nM | effect of inhibitor on U46619-induced [Ca2+]i mobilization by TPβ (TPβ [3]): no significant effect
SMILES: O=C1C(Nc2ccccc2)=CC(=O)c2ncccc21 [LY 83583, 6-Anilino-5,8-quinolinequinone]
